Data on 16 compounds can be found in US20090275610A1, “TRICYCLIC OPIOID MODULATORS” (priority 2005, published 2009).

One assay addresses T1, delta opioid receptor (Rattus norvegicus, UniProt P33533).
T1 construct: the forebrains were homogenized in Tris buffer in a Teflon®-glass homogenizer; from tissue; host or cells: forebrain of male Wistar rats (particulate membrane preparation)
Put plainly: Rat brain delta opioid receptor binding assay. The following applies: rat forebrain membranes, [3H]DPDPE or [3H]naltrindole, 25° C., 2.5 h. Here is the method:
Rat Brain Delta Opioid Receptor Binding Assay
(§1) Procedure: Male, Wistar rats (150-250 g, VAF, Charles River, Kingston, N.Y.) were killed by CO2, and their brains removed and placed immediately in ice cold Tris HCl buffer (50 mM, pH 7.4). The forebrains were separated from the remainder of the brain by a coronal transection, beginning dorsally at the colliculi and passing ventrally through the midbrain-pontine junction. After dissection, the forebrains were homogenized in Tris buffer in a Teflon®-glass homogenizer. The homogenate was diluted to a concentration of 1 g of forebrain tissue per 80 mL Tris and centrifuged at 39,000×g for 10 min. The pellet was resuspended in the same volume of Tris buffer containing 5 mM MgCl2 with several brief pulses from a Polytron homogenizer. This particulate preparation was used for the delta opioid binding assays.
Analysis: The data from the scintillation counter were used to calculate either the % inhibition compared to control binding (when only a single concentration of test compound was evaluated) or a Ki value (when a range of concentrations was tested). Percent inhibition was calculated as: [(total dpm−test compound dpm)/(total dpm−nonspecific dpm)]*100. Kd and Ki values were calculated using GraphPad PRISM data analysis program.

Assay [1] concerns the target T2, hMOR (CHO-hMOR cell membranes) (Homo sapiens, UniProt P35372).
T2 construct: host or cells: CHO cells expressing hMOR (purchased membranes)
In words: [35S]GTPγS binding assay in CHO-hMOR cell membranes. It is filed as biochemical. The following applies: for mu GTPγS binding Rel Eff: value in parentheses. Here is the method: Functional Assay: [^35S]GTPγS Binding Assays in CHO-hMOR Cell Membranes
Methods: CHO-hMOR cell membranes were purchased from Receptor Biology, Inc. (Baltimore, Md.). About 10 mg/mL of membrane protein was suspended in 10 mM TRIS-HCl pH 7.2, 2 mM EDTA, 10% sucrose, and the suspension kept on ice. A 1 mL volume of membranes was added to 15 mL cold binding assay buffer containing 50 mM HEPES, pH 7.6, 5 mM MgCl2, 100 mM NaCl, 1 mM DTT and 1 mM EDTA. The membrane suspension was homogenized with a Polytron and centrifuged at 3,000 rpm for 10 min. The supernatant was then centrifuged at 18,000 rpm for 20 min. The pellet was resuspended in 10 mL assay buffer with a Polytron. The membranes were preincubated with wheat germ agglutinin coated SPA beads (Amersham) at 25° C. for 45 min in the assay buffer. The SPA bead (5 mg/mL) coupled membranes (10 μg/mL) were then incubated with 0.5 nM [^35S]GTPγS in the assay buffer. […] A range of concentrations of receptor agonist was used to stimulate [^35S]GTPγS binding. Both basal and non-specific binding was tested in the absence of agonist; non-specific binding determination included 10 μM unlabeled GTPγS.
Compounds were tested for function as antagonists by evaluating their potential to inhibit agonist-stimulated GTPγS binding. Radioactivity was quantified on a Packard TopCount. The following parameters were calculated:
(§2) EC50 values were calculated using GraphPad Prism.
(In general: GTPγS resists hydrolysis and so accumulates on activated G proteins.)

Assay [2] has as its target T3, delta opioid receptor (NG108-15 cell membranes) (Mus musculus, UniProt P32300).
T3 construct: NG108-15 cell membranes were purchased from Applied Cell Sciences (Rockville, Md.); host or cells: NG108-15 cell membranes (purchased)
In words: [35S]GTPγS binding assay in NG108-15 cell membranes (delta opioid). The assay is classed as biochemical. The settings on record: for delta GTPγS binding Rel Eff: value in parentheses. Here is the method:
Functional Assay: [^35S]GTPγS Binding Assay in NG108-15 Cell Membranes (Delta Opioid)
Methods: NG108-15 cell membranes were purchased from Applied Cell Sciences (Rockville, Md.). A sample (8 mg/mL) of membrane protein suspended in 10 mM TRIS-HCl pH 7.2, 2 mM EDTA, 10% sucrose. Membranes were maintained at 4-8° C. A 1 mL volume of membranes was added into 10 mL cold binding assay buffer. The assay buffer contained 50 mM Tris, pH 7.6, 5 mM MgCl2, 100 mM NaCl, 1 mM DTT and 1 mM EGTA. The membrane suspension was homogenized twice with a Polytron, and centrifuged at 3000 rpm for 10 min. The supernatant was then centrifuged at 18,000 rpm for 20 min. Ten mL assay buffer was added into the pellet containing tube. The pellet and buffer were mixed with a Polytron.
Incubation procedure: The pellet membranes (75 μg/mL) were preincubated with SPA (10 mg/mL) at 25° C. for 45 min in the assay buffer. The SPA (5 mg/mL) coupled with membranes (37.5 μg/mL) was then incubated with 0.1 nM [^35S]GTPγS in the same Tris buffer containing 100 μM GDP in total volume of 200 μL. Increasing concentrations of receptor agonists were used to stimulate [^35S]-GTPγS binding. The basal binding was tested in the absence of agonists and non-specific binding was tested in the presence of 10 μM unlabeled GTPγS. The data were analyzed on a Packard Top Count.
% of Basal=(stimulated−non specific)*100/(basal−non specific).
as §2

Another assay addresses T4, mu opioid receptor (Rattus norvegicus, UniProt P33535).
T4 construct: the forebrains were homogenized in Tris buffer in a Teflon®-glass homogenizer; from tissue; host or cells: forebrain of male Wistar rats (particulate membrane preparation)
Put plainly: Rat brain mu opioid receptor binding assay. The settings on record: rat forebrain membranes, [3H]DAMGO, 25° C., 2.5 h. Here is the method: Rat Brain Mu Opioid Receptor Binding Assay
as §1
Analysis: The data from the scintillation counter were used to calculate either the % inhibition compared to control binding (when only a single concentration of test compound was evaluated) or a Ki value (when a range of concentrations tested). Percent inhibition was calculated as: [(total dpm−test compound dpm)/(total dpm−nonspecific dpm)]*100. Kd and Ki values were calculated using GraphPad PRISM data analysis program.

Setting [3] is: read-out: rDOR (Ki, nM): Rat delta opioid receptor binding constant.
Setting [4] is: CHO-hMOR cell membranes, read-out: mu GTPγS binding EC50.
Setting [5] is: read-out: delta GTPγS binding EC50.
[6] abbreviates: read-out: rMOR (Ki, nM): Rat mu opioid receptor binding constant.
The mark [7] stands for this setting: rDOR (Ki, nM): Rat delta opioid receptor binding constant.
Where [8] appears, read: rMOR (Ki, nM): Rat mu opioid receptor binding constant.

SMILES strings stand for the structures. Values joined by “and” are separate entries in the source; they are usually repeats but may differ in a detail not shown here. Equal entries are not always repeated. Where two headings read alike, the source gives them in different places. Where only a bound is given, the exact number is not on record here.

T4 sequence (P33535 whole entry): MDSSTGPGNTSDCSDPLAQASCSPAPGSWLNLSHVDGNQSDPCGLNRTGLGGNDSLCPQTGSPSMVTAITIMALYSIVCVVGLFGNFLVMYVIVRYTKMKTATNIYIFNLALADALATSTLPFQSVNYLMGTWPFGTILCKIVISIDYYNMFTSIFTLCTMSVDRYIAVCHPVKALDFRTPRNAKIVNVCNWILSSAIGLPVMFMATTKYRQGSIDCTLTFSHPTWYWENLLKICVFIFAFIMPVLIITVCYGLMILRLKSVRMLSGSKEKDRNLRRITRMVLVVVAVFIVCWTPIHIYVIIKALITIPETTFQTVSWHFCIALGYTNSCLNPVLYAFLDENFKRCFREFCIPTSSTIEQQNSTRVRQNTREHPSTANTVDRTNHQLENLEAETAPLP
T1 sequence (P33533 whole entry): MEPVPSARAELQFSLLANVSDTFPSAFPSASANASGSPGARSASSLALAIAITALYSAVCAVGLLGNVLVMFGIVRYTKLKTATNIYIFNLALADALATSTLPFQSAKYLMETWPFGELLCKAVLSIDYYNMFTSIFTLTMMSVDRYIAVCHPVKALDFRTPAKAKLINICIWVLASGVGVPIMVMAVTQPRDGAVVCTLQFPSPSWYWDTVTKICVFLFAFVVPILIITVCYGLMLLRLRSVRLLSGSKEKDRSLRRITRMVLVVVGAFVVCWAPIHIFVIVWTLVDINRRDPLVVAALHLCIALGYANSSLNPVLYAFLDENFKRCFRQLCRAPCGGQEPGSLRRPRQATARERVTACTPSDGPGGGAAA
T3 sequence (P32300 whole entry): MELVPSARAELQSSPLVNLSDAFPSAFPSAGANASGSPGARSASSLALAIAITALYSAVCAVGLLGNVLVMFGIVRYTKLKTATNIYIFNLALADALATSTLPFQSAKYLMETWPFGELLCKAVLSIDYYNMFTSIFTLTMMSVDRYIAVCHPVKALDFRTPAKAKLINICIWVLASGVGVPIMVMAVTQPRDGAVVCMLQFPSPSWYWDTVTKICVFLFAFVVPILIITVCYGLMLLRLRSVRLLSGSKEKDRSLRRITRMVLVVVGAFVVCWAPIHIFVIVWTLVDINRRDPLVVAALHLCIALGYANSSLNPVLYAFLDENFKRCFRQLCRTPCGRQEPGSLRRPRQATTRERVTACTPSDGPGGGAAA
T2 sequence (P35372 whole entry): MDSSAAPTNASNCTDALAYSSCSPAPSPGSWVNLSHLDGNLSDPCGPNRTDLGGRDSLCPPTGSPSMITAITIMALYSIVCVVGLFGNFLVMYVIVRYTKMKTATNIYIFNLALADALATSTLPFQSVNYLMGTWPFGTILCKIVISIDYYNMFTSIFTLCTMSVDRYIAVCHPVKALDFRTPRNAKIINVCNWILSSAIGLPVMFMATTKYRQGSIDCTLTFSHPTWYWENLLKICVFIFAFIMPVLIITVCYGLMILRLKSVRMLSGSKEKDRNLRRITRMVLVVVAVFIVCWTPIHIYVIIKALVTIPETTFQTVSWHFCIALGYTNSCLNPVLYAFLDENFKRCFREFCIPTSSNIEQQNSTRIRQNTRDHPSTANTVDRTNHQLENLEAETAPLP

In the case of `Oc1cccc2c1Oc1ccccc1C2=C1CC2CCC(C1)N2Cc1c[nH]c(-c2ccccc2)n1` [Cpd 28], the figures for the Ki at delta opioid receptor (setting [3]) and at mu opioid receptor (setting [6]) were 192 nM and 58.5 nM, respectively. Also, the figures for the EC50 in assay [1] (setting [4]) and in assay [2] (setting [5]) were greater than 10000 nM and 1380 nM, respectively.

`Oc1cccc2c1Oc1ccccc1C2=C1CC2CCC(C1)N2` (single isomer, unassigned) [Cpd 8, 9-(8-Azabicyclo[3.2.1]oct-3-ylidene)-9H-xanthen-4-ol]: the values for the Ki on delta opioid receptor (setting [7]) and on mu opioid receptor (setting [8]) were 0.56 nM and 3.5 nM, respectively. Further, the EC50 in assay [1] was 902 nM; in assay [2] (delta GTPγS binding EC50 (nM)) it was 9.98 nM.

In the case of `Oc1cccc2c1Oc1ccccc1C2=C1CC2CCC(C1)N2Cc1ccccc1` [Cpd 32, 9-(8-benzyl-8-azabicyclo[3.2.1]oct-3-ylidene)-9H-xanthen-4-ol], the Ki on delta opioid receptor (setting [7]) is 0.023 nM; on mu opioid receptor (setting [8]), 0.29 nM. Moreover, the EC50 is greater than 10000 nM in assay [1] and 28.6 nM in assay [2] (delta GTPγS binding EC50 (nM)).

Take `Oc1cccc2c1Oc1ccccc1C2=C1CC2CCC(C1)N2Cc1ccccn1` [Cpd 21, 9-(8-pyridin-2-ylmethyl-8-azabicyclo[3.2.1]oct-3-ylidene)-9H-xanthen-4-ol]: the Ki came to 0.007 nM on delta opioid receptor (setting [7]) and 0.1 nM on mu opioid receptor (setting [8]). Besides, the EC50 in assay [1] was greater than 10000 nM; in assay [2] (delta GTPγS binding EC50 (nM)), 21.8 nM.

Take `Oc1cccc2c1Oc1ccccc1C2=C1CC2CCC(C1)N2Cc1ccoc1` [Cpd 25, 9-(8-Furan-3-ylmethyl-8-aza-bicyclo[3.2.1]oct-3-ylidene)-9H-xanthen-4-ol]: the Ki amounted to 0.26 nM at delta opioid receptor (setting [7]) and 0.56 nM at mu opioid receptor (setting [8]). Besides, the EC50 in assay [1] was determined as 2810 nM; in assay [2] (delta GTPγS binding EC50 (nM)) it was 1.08 nM.

Consider `Oc1cccc2c1Oc1ccccc1C2=C1CC2CCC(C1)N2Cc1ncc[nH]1` [Cpd 34], for which the Ki at delta opioid receptor (setting [3]) was 0.028 nM; on mu opioid receptor (setting [6]), 0.53 nM. Besides, the EC50 turned out to be 1610 nM in assay [1] (setting [4]) and 3.33 nM in assay [2] (setting [5]).

Consider `NC(=O)c1cccc2c1Oc1ccccc1C2=C1CC2CCC(C1)N2Cc1ccoc1` [Cpd 4, 9-(8-Furan-3-ylmethyl-8-azabicyclo[3.2.1]oct-3-ylidene)-9H-xanthene-4-carboxylic acid amide], for which the figures for the Ki on delta opioid receptor (setting [7]) and at mu opioid receptor (setting [8]) were 2.3 nM and 2.5 nM, respectively. The EC50 in assay [1] (setting [4]) is 4040 nM; in assay [2] (setting [5]), 9.4 nM.

Consider `Oc1cccc2c1Oc1ccccc1C2=C1CC2CCC(C1)N2` (racemic) [Cpd 2, 9-(8-Aza-bicyclo[3.2.1]oct-3-ylidene)-9H-xanthen-4-ol], for which the figures for the Ki at delta opioid receptor (setting [7]) and on mu opioid receptor (setting [8]) were 0.48 nM and 7 nM, respectively. The EC50 turned out to be 382 nM in assay [1] and 50.9 nM in assay [2] (delta GTPγS binding EC50 (nM)). Further, the “mu GTPγS binding Rel Eff” value in assay [1] (CHO-hMOR cell membranes) turned out to be 0.37. For the same compound, in assay [2], the “delta GTPγS binding Rel Eff” value was found to be 0.67.

With `Oc1cccc2c1Oc1ccccc1C2=C1CC2CCC(C1)N2CCc1ccccc1` [Cpd 30], the Ki on delta opioid receptor (setting [3]) turned out to be 63.5 nM; at mu opioid receptor (setting [6]), 27.7 nM. The EC50 in assay [1] (setting [4]) is greater than 10000 nM; in assay [2] (setting [5]) it was 2960 nM.

Consider `CN1C2CCC1CC(=C1c3ccccc3Oc3c(O)cccc31)C2` [Cpd 19, 9-(8-Methyl-8-azabicyclo[3.2.1]oct-3-ylidene)-9H-xanthen-4-ol], for which the values for the Ki at delta opioid receptor (setting [7]) and on mu opioid receptor (setting [8]) were 28.3 nM and 372 nM, respectively. The values for the EC50 in assay [1] and in assay [2] (delta GTPγS binding EC50 (nM)) were greater than 10000 nM and 768 nM, respectively.

Regarding `Oc1cccc2c1Oc1ccccc1C2=C1CC2CCC(C1)N2Cc1cccs1` [Cpd 24], the Ki stood at 0.046 nM at delta opioid receptor (setting [3]) and 1.58 nM on mu opioid receptor (setting [6]). Moreover, the figures for the EC50 in assay [1] (setting [4]) and in assay [2] (setting [5]) were greater than 10000 nM and 6.05 nM, respectively.

Turning to `Oc1cc(CN2C3CCC2CC(=C2c4ccccc4Oc4c(O)cccc42)C3)ccn1` [Cpd 23], the figures for the Ki at delta opioid receptor (setting [3]) and at mu opioid receptor (setting [6]) were 1.5 nM and 2.18 nM, respectively. In addition, the EC50 came out at 12400 nM in assay [1] (setting [4]) and 52.8 nM in assay [2] (setting [5]).

For `NC(=O)c1cccc2c1Oc1ccccc1C2=C1CC2CCC(C1)N2` [Cpd 3, 9-(8-Aza-bicyclo[3.2.1]oct-3-ylidene)-9H-xanthene-4-carboxylic acid amide], the Ki on delta opioid receptor (setting [7]) was determined as 3.2 nM; at mu opioid receptor (setting [8]), 29.4 nM. Besides, the EC50 in assay [1] amounted to 3960 nM; in assay [2] (delta GTPγS binding EC50 (nM)), 42 nM.

For the compound `Oc1cccc2c1Oc1ccccc1C2=C1CC2CCC(C1)N2Cc1ccncc1` [Cpd 22], the Ki on delta opioid receptor (setting [3]) was 0.97 nM; at mu opioid receptor (setting [6]), 358 nM. In addition, the EC50 in assay [1] (setting [4]) was greater than 10000 nM; in assay [2] (setting [5]) it was 2720 nM.

For the compound `O=C(Nc1ccccc1)c1cccc2c1Oc1ccccc1C2=C1CC2CCC(C1)N2` [Cpd 12, 9-(8-Azabicyclo[3.2.1]oct-3-ylidene)-9H-xanthene-4-carboxylic acid phenylamide], the Ki is 272 nM and 67.9 nM at delta opioid receptor (setting [7]); 32 nM at mu opioid receptor (setting [8]). The EC50 came to 611 nM in assay [1] and 30.3 nM in assay [2] (delta GTPγS binding EC50 (nM)). Further, the “mu GTPγS binding Rel Eff” value in assay [1] (CHO-hMOR cell membranes) turned out to be 0.96. Further, the “delta GTPγS binding Rel Eff” value in assay [2] is given as 1.03.

On to `NC(=O)c1cccc2c1Oc1ccccc1C2=C1CC2CCC(C1)N2` (single isomer, unassigned) [Cpd 37, 9-(8-Azabicyclo[3.2.1]oct-3-ylidene)-9H-xanthene-4-carboxylic acid amide], for which the Ki on delta opioid receptor (setting [7]) amounted to 4 nM; at mu opioid receptor (setting [8]), 29 nM. Moreover, the EC50 in assay [1] is 878 nM; in assay [2] (delta GTPγS binding EC50 (nM)), 156 nM.
